According to US20160050920A1, “METHODS TO IMPROVE NODAL ROOTS” (Valent BioSciences Corporation, priority 2014, published 2016):

Legend:
Format in all cases: in vivo
[1] = system: Hybrid corn; test: Example 1: potted hybrid corn, newest nodal roots after GA3 foliar spray
Text: Hybrid corn seed was planted 3.8 centimeters (cm) deep on three separate dates in Miracle-Gro Potting Mix (Miracle-Grois a registered trademark owned by OMS Investments, Inc., Miracle-Gro Potting Mix is widely available at retail home improvement stores) in 2.5 gallon pots. The pots were filled with 0.007 cubic meters of potting mix. The seeds/plants were watered as needed. The second planting was 10 days after the first planting and the third planting was nine days after the second planting. The plants were treated with 0, 8.4 g ai/hectare, or 16.8 g ai/hectare of GA3 as formulated in RyzUp SmartGrass° (available from Valent BioSciences Corp.) using a TeeJet® 8002 VS spray tip on a manual sprayer set at 15 gallons per acre. Distilled water was used and non-ionic surfactant (0.25% v/v). The treatments were applied on the same day which was 28 days after the first planting (corn was at V6 stage), 18 days after the second planting (corn was at V3 or V4 stages), and 9 days after the third planting (corn was at V1 stage). Crop Heat Units are a way of calculating growth and are calculated on a daily basis, using the maximum (Tmax) and minimum (Tmin) daily air temperatures, measured from midnight to midnight, in degrees Celsius. The Crop Heat Unit (CHU) system uses the following equation which allows growers to more accurately predict the growth of crops compared to using calendar days: Tmax+Tmin÷2−Tbase, wherein Tbase is the base temperature for the crop. During this study, there were a few days following the treatments with temperatures exceeding 24 degrees Celsius and the nights dipped below 10 degrees Celsius. The week immediately following treatment, there was one day above 24 degrees Celsius, each night dipped below 10 degrees Celsius. […] The growth rate of corn also declines when temperatures are above 30 degrees Celsius. In this study, there was an average of 10 CHUs per day following treatment and a total of 83CHUs. The corn was harvested at 1, 2, and 3 weeks after treatment. The plants were washed and roots were separated from shoots.

[2] = system: Hybrid corn; test: Example 3: field study, root count of hybrid corn; details: 2.75 g ai/hectare at V4
Experimental: A field study was conducted in order to determine the effects of GA3 on root development. Hybrid corn seeds were planted and were treated when the corn was at the V4 stage of development sixteen days after planting. The treatments were 0 or 2.75g ai/hectare of GA3 as formulated in RyzUp SmartGrass® using a TeeJet® 8002 VS spray tips with a backpack sprayer set at 15 gallons per acre. Distilled water was used and non-ionic surfactant (0.25% v/v). The plants were then destructively harvested and their root count was evaluated.

[3] = system: Hybrid corn; test: Example 4: field study, number and dry weight of roots in two corn hybrids; set-up: Dry weight of nodes 1 to 3 / Dry weight of nodes 4 to 7 / Total dry weight: unit not given here
Experimental: Another field study was conducted in order to determine the effects of GA3 on root development. Two types of hybrid corn seeds were planted during the spring season. The plants were treated with 0 or 2.75g ai/hectare of GA3 as formulated in RyzUp SmartGrass® using a TeeJet° 8002 VS spray tip on a manual sprayer set at 15 gallons per acre. Distilled water was used and non-ionic surfactant (0.25% v/v). The treatments were applied when the corn was at the V4 stage of development. The plants were then destructively harvested 32 days after treatments and their number of roots, dry weight, and dry weight of nodal roots were evaluated.

[4] = Hybrid 1, 2.75 g ai/hectare at V4, 32 days after treatment
[5] = Hybrid 2, 2.75 g ai/hectare at V4, 32 days after treatment

## C=C1C[C@]23C[C@@]1(O)CC[C@H]2[C@@]12C=C[C@H](O)[C@@](C)(C(=O)O1)[C@H]2[C@@H]3C(=O)O [GA3, gibberellic acid]
[1]; 8.4 g ai/ha GA3
  # of newest nodal roots exposed/6 plants: 29
  # of newest nodal roots exposed/plant: 4.8
  # of newest nodal roots exposed/plant with newest nodal roots present: 5.8
  cm of newest nodal roots exposed/plant: 4.2 cm
  cm of newest nodal roots exposed/plant with newest nodal roots: 5.0 cm
[1]; 8.4 g ai/ha GA3, foliar spray
  % of plants with newest nodal roots exposed: 83%
[1]; 16.8 g ai/ha GA3
  # of newest nodal roots exposed/6 plants: 33
  # of newest nodal roots exposed/plant: 5.5
  # of newest nodal roots exposed/plant with newest nodal roots present: 5.5
  cm of newest nodal roots exposed/plant: 5.3 cm
  cm of newest nodal roots exposed/plant with newest nodal roots: 5.3 cm
[1]; 16.8 g ai/ha GA3, foliar spray
  % of plants with newest nodal roots exposed: 100%
[2]; 1 day before treatment (baseline)
  root count, Treated Compared to Untreated % of Control: 100.2 % of Control
[2]; 4 days after treatment
  root count, Treated Compared to Untreated % of Control: 105.6 % of Control
[2]; 7 days after treatment
  root count, Treated Compared to Untreated % of Control: 105.5 % of Control
[2]; 13 days after treatment
  root count, Treated Compared to Untreated % of Control: 107.8 % of Control
[3]; [4]
  Dry weight of nodes 1 to 3: 2.5
  Dry weight of nodes 4 to 7: 14.4
  Total dry weight: 16.9
  Total roots: 53.2
[3]; [5]
  Dry weight of nodes 1 to 3: 1.7
  Dry weight of nodes 4 to 7: 10.1
  Total dry weight: 11.8
  Total roots: 39
